In patent EP2787958B1, “CHELIDONIUM MAJUS EXTRACTS AND THEIR USE IN THE TREATMENT OF SKIN DISORDERS AND PROMOTION OF SKIN REGENERATION” (priority 2011, dated 2013):
Like-named read-outs stand apart in the source and are kept apart here.

Columns and labels:
[1] = Anti-radical activity (decay of the DPPH radical); format: biochemical; conditions: for Anti-radical (skin protective): 24 hours
Method: With regard to assays aimed at evaluating anti-radical activity, a chemical test was used where the decay of the diphenylpicrylhydrazyl (DPPH) radical is assessed in the absence or in the presence of the test substances. Indeed, the DPPH radical is used to test the ability of substances to act as free radical scavengers. DPPH in solution has a purple colour with a maximum absorbance peak at 517 nm which changes to yellow-colourless when this radical extracts a hydrogen atom from a radical scavenger to give rise to the reduced form DPPH-H. The assay has been conducted in quadruplicate in 96 well microplates (SARSTEDT Tissue Culture Plate 96-well flat bottom cell+). 50 µl of an ethanol solution of the test substance at 2X concentration and then 50 µl of a 200 µM solution of DPPH (MW 168,18, Aldrich 2,2-di(4-tert-octylphenyl)-1-picrylhydrazyl, free radical Lot# MKBF7574V Cat N° 257621-100 mg) have been added to each well of the microplate. A positive control consisting of 0.1 mM vitamin C and a negative control consisting of ethanol alone were included in each microplate. After 30 minutes from the addition of DPPH, photographs of the plates were taken (Canon PowerShot A610 5.0 Mpixels) and read spectrophotometrically at 530 nm.
Based on the analysis of the results reported in Table 9, some substances were selected for further characterisation of their anti-radical activity. For the selected substances, dose-activity curves were obtained and the IC50 value were computed using a non-linear regression model with the Hill equation at variable slope. Such substances had been selected due to both their anti-radical potential and the easiness of their isolation/production. The selection of substances was made in view of cosmetics applications. Moreover their activity on human dermal fibroblasts (HDF) is expected to be useful also for the development of dermatological medications. The selected substances are discussed below.

[2] = test system: interleukin 1β (IL-1β); experiment: Inflammatory cytokines in cell supernatant (Mosaic ELISA microarray): IL-1β; format: cell-based, Human; conditions: for IL-1β ng/(ml* No. of cells from photo) ± SD: 24 hours; for IL-1β production (effect in words): 1-10 µM
Method: (§1) The inflammatory cytokines, CD40 ligand (CD40L), interferon γ (INF-γ), interleukin 1α (IL-1α), interleukin 1β (IL-1β), interleukin 6 (IL-6), interleukin 8 (IL-8), interleukin 17 (IL-17) and tumour necrosis factor α (TNF-α) were determined qualitatively and quantitatively. Each measurement was performed in duplicate using a Mosaic™ ELISA protein microarray assay system from R&D System in accordance with the supplier's instructions. Furthermore, with the aim of obtaining a correlation model between light signal intensity and cytokine concentration, a calibration curve using 6 concentrations was performed for each of them. Analysis of the data was performed using the dedicated Q-View™ Imager software package from Quansys Biosciences

[3] = test system: interleukin 6 (IL-6); experiment: Inflammatory cytokines in cell supernatant (Mosaic ELISA microarray): IL-6; format: cell-based, Human; conditions: for IL-6 ng/(ml* No. of cells from photo) ± SD: 24 hours; for IL-6 production (effect in words): 1-10 µM
Method: as §1

[4] = test system: HDF cells; experiment: Summary of uses and toxic effects deduced from the cell assays (Table 1); format: cell-based, Human
Method: Antiradical (skin protective): this is deduced from the free radical scavenger effects.
Revitalizing: this is deduced from the increased mitochondrial dehydrogenase effect.
Cytoprotective, with regard to oxidative damage (antioxidant, anti-inflammatory and anti-ageing): this is deduced from antagonising the stimulation of IL-1β and/or IL-6 induced by 100 µM H2O2 and from the absence of changes in cell morphology similar to the ones due to cell senescence.
Wound healing: this is deduced from the effect of inhibiting the production of IL-1β and by the effect of stimulating cell proliferation under standard growth conditions.
Cytotoxicity: this is deduced from the effect of reducing mitochondrial dehydrogenase activity or from the presence of morphologies characteristic of cell senescence.
Irritation: this is deduced from the effect of increased production of IL-6 and/or IL-1β under standard growth conditions.
Said uses in the fields of medicine and cosmetics or the toxic effects of the substances of the invention at a given dosage, for 24 hours, are summarized in Table 1 below.

[5] = test system: collagen produced by HDF cells; experiment: Quantity of collagen produced by the cells (elution of Sirius Red); conditions: 1-10 µM (1 µM and 10 µM)
[6] = test system: Human dermal fibroblasts (HDF); experiment: Mitochondrial dehydrogenase activity (WST-1 formazan assay) in HDF cells; conditions: for Revitalizing agent: 24 hours; for activity at 1 µM / activity at 10 µM: Homo sapiens, Fibroblast, read-out: % mitochondrial dehydrogenase activity ± SD
[7] = test system: HDF cells; experiment: Evaluation of cell proliferation (counting of Sirius Red stained cells in photographs); conditions: for No. of cells from photo ± SD: 24 hours
[8] = Dose 1 µm (coptisine: 1 pm [sic])
[9] = Dose 1 µm (coptisine: 1 pm [sic]), 24 hours

## O=C1O[C@H]([C@@H](O)CO)C(O)=C1O [vitamin C, reference compound]
[1]; 0.1 mM, positive control
  % DPPH activity: 0%

## c1cc2c(c3c1C[C@H]1c4cc5c(cc4CCN1C3)OCO5)OCO2 [stylopine]
[2]; 1 µM, 34 ng/ml TGF-β1
  IL-1β ng/(ml* No. of cells from photo) ± SD: 97±3 ng/(ml* No. of cells from photo)
[2]; 1 µM, 100 µM H2O2
  IL-1β ng/(ml* No. of cells from photo) ± SD: 100±4 ng/(ml* No. of cells from photo)
[2]; 1 µM, Standard conditions
  IL-1β ng/(ml* No. of cells from photo) ± SD: 159±10 ng/(ml* No. of cells from photo)
[2]; 10 µM, 34 ng/ml TGF-β1
  IL-1β ng/(ml* No. of cells from photo) ± SD: 109±14 ng/(ml* No. of cells from photo)
[2]; 10 µM, 100 µM H2O2
  IL-1β ng/(ml* No. of cells from photo) ± SD: 88±10 ng/(ml* No. of cells from photo)
[2]; 10 µM, Standard conditions
  IL-1β ng/(ml* No. of cells from photo) ± SD: 186±7 ng/(ml* No. of cells from photo)
[2]; 34 ng/ml TGF-β1
  IL-1β production (effect in words): antagonizes the production of IL-1β
[2]; 100 µM H2O2
  IL-1β production (effect in words): antagonizes the production of IL-1β
[2]; standard conditions
  IL-1β production (effect in words): inhibits the production of IL-1β
[3]; 1 µM, 34 ng/ml TGF-β1
  IL-6 ng/(ml* No. of cells from photo) ± SD: 447±8 ng/(ml* No. of cells from photo)
[3]; 1 µM, 100 µM H2O2
  IL-6 ng/(ml* No. of cells from photo) ± SD: 583±25 ng/(ml* No. of cells from photo)
[3]; 1 µM, Standard conditions
  IL-6 ng/(ml* No. of cells from photo) ± SD: 868±62 ng/(ml* No. of cells from photo)
[3]; 10 µM, 34 ng/ml TGF-β1
  IL-6 ng/(ml* No. of cells from photo) ± SD: 528±33 ng/(ml* No. of cells from photo)
[3]; 10 µM, 100 µM H2O2
  IL-6 ng/(ml* No. of cells from photo) ± SD: 449±2 ng/(ml* No. of cells from photo)
[3]; 10 µM, Standard conditions
  IL-6 ng/(ml* No. of cells from photo) ± SD: 961±38 ng/(ml* No. of cells from photo)
[3]; 34 ng/ml TGF-β1
  IL-6 production (effect in words): antagonizes the production of IL-6
[3]; 100 µM H2O2
  IL-6 production (effect in words): antagonizes the production of IL-6
[3]; standard conditions
  IL-6 production (effect in words): inhibits the production of IL-6
[1]; 1 mM, 30 minutes
  % DPPH activity: 113%
[1]; [8]
  Anti-radical (skin protective): No
[1]; Dose 10 µm
  Anti-radical (skin protective): No
[4]
  Cytotoxic: No
  Irritant: No
[4]; [9]
  Anti-fibrotic (prevention of scar formation, also from acne): Yes (↓collagen, ↓IL-6, ↓IL-1β)
  Cytoprotective (antioxidant, anti-inflammatory and anti-ageing; useful also in the treatment of acne): Yes (↓IL-6, ↓IL-1β)
  Wound-healing: Yes (↑profil)
[4]; Dose 10 µm, 24 hours
  Anti-fibrotic (prevention of scar formation, also from acne): Yes (↓collagen, ↓IL-6. ↓IL-1β)
  Cytoprotective (antioxidant, anti-inflammatory and anti-ageing; useful also in the treatment of acne): Yes (↓IL-6, ↓IL-1β)
  Cytotoxic: No
  Irritant: No
  Wound-healing: No
[4]; exposure for 24 hours
  concentrations at which no toxic (cytotoxic and irritant) effects are shown: less than or equal to 10 µM
[5]; 34 ng/ml TGF-β1
  collagen production (effect in words): antagonizes the stimulation of collagen induced by 34 ng/ml TGF-β1
[5]; 100 µM H2O2
  collagen production (effect in words): tendency to inhibit collagen production
[6]
  concentrations below which no significant effects on mitochondrial dehydrogenase activity are shown: below 1 µM
[6]; 10 µM, exposure time 42 h
  mitochondrial dehydrogenase activity (effect in words): increased with respect to the control
[6]; 100 µM
  mitochondrial dehydrogenase activity (effect in words): less marked stimulation of mitochondrial dehydrogenase activity
[6]; [8]
  Revitalizing agent: Yes**
[6]; Dose 10 µm
  Revitalizing agent: Yes
[6]; 18 h
  activity at 1 µM: 105 ± 9.5%
  activity at 10 µM: 107 ± 3%
[6]; 42 h
  activity at 1 µM: 100 ± 15.8%
  activity at 10 µM: 151 ± 12.8%
[6]; 46 h
  activity at 1 µM: 95.7%
  activity at 10 µM: 138 ± 23.9%
[6]; between 1 and 100 µM, exposure time 18 h
  mitochondrial dehydrogenase activity (effect in words): non-significant tendency to stimulate mitochondrial dehydrogenase activity in a dose-dependent manner
[6]; fibroblast cells, higher doses
  mitochondrial dehydrogenase activity (effect in words): inhibit mitochondrial dehydrogenase activity
[6]; fibroblast cells, low dosage
  mitochondrial dehydrogenase activity (effect in words): stimulate mitochondrial dehydrogenase activity
[7]; 1 µM
  cell proliferation (effect in words): tendency to stimulate cell proliferation
[7]; 1 µM, 34 ng/ml TGF-β1
  No. of cells from photo ± SD: 237±19
[7]; 1 µM, 100 µM H2O2
  No. of cells from photo ± SD: 240±12
[7]; 1 µM, Standard conditions
  No. of cells from photo ± SD: 234± 7
[7]; 10 µM, 34 ng/ml TGF-β1
  No. of cells from photo ± SD: 210±17
[7]; 10 µM, 100 µM H2O2
  No. of cells from photo ± SD: 249±8
[7]; 10 µM, Standard conditions
  No. of cells from photo ± SD: 183±12
